# Experimental data reported in patent US20250360087A1, “COMPOSITIONS COMPRISING LIPID DROPLETS ENCAPSULATED WITHIN POLYSACCHARIDE WALLS AND USES THEREOF” (UNIVERSITY OF SOUTH AUSTRALIA, priority 2022, published 2025).
# How the values were obtained:
# S. aureus biofilms = test: In vitro biofilm study, crystal violet assay; format: cell-based, Staphylococcus aureus
# Description: Bacterial suspension was further diluted 1/15 with broth and subsequently added to the wells of a 96-well plate. The outer wells were filled with PBS (200 μL) for hydration purposes and the second right column contained sterile broth (100 μL) to serve as negative control. The plate was wrapped in aluminium foil and incubated on a 3D rotating platform at 70 rpm at 37° C. for 24 h to grow biofilms. After 24 h incubation, turbid biofilms sitting at the bottom of wells could be assessed visually. The broth in the wells of the plate was aspired gently by a vacuum pump without disturbing the biofilms and the wells were washed with 0.9% Saline (100 μL) twice to remove nonadherent bacteria. […] The plate was wrapped in aluminium foil and incubated on a 3D rotating platform at 70 rpm at 37° C. for 24 h. After 24 h of exposure to the formulations, supernatants were removed gently without disturbing the biofilms by a vacuum pump and the wells were washed with 0.9% Saline (100 μL) twice. Biofilms were fixed by oven heating at 60° C. for 1 h. […] The biofilm biomass of S. aureus was quantified by spectrometry at 595 nm in 96 well plate reader.
# S. aureus ATCC 25923 = test: Minimum inhibitory concentration of rifampicin in S. aureus; format: cell-based; details: Staphylococcus aureus, ATCC25923; 24 h, 37° C., turbidity; read-out: MIC, concentration required to inhibit growth
# Description: Single colonies of S. aureus ATCC 25923 were suspended in 0.9% sterile saline to reach approximately 1×10^8 colony forming units (CFU)/mL (equivalent to an optical density of 0.08-0.12 at 600 nm). The bacterial suspension was further diluted 1/100 with broth. Bacterial suspension was added to 96-wells. […] The 96-well plate was incubated at 37° C. for 24 h. The plates were visually assessed for turbidity indicating growth of bacteria.
# RAW 264.7 macrophages = test: Cellular cytotoxicity, MTT assay; format: cell-based, Murine; details: after 1 h incubation
# Description: 100 μL of cell suspension at a density of 7000 cells per well was seeded in 96-well plate and incubated (37° C., 5% CO2) for 12 h to allow the attachment of cells. After incubation the supernatant was discarded and replaced with 200 μL of particle solution (in DMEM) at various concentrations (ranging from 10 to 100 μg/mL) and incubated for further 24 h. After incubation, the cells were washed with sterile PBS and 10 μL of MTT (3-(4,5-dimethylthiazol-2-yl)-2,5-diphenyltetrazolium bromide) solvent was added to each well prior to incubation for a further 4 h. Afterward, the supernatant was discarded, and the absorbance was read at OD=540 nm using a microplate reader.
compound,measurement,setting,value
CO[C@H]1/C=C/O[C@@]2(C)Oc3c(C)c(O)c4c(O)c(c(/C=N/N5CCN(C)CC5)c(O)c4c3C2=O)NC(=O)/C(C)=C\C=C\[C@H](C)[C@H](O)[C@@H](C)[C@@H](O)[C@@H](C)[C@H](OC(C)=O)[C@@H]1C [rifampicin],biofilm biomass remaining,S. aureus biofilms; exposure to 1 μg/mL of rifampicin,34%
same,reduction in biofilm biomass,"S. aureus biofilms; rifampicin 16 μg/mL, 24 h",up to 82%
same,biofilm reduction,"S. aureus biofilms; rifampicin 1 to 16 μg/mL, 24 h",more than 50%
same,MIC,S. aureus ATCC 25923,< 0.0156 µg/mL
Triton-X,cellular viability (positive control),RAW 264.7 macrophages,no cellular viability
